In patent publication US20070254314A1, “Methods of treating autism and autism spectrum disorders” (priority 2004, published 2007):
Read-outs that look alike come from different tables or passages of the source.

Columns and labels:
[1] = From the text: (§1) The toxic metals were reported as μg/g creatinine in order to account for urine dilution variations.
as §1, §1, §1

[2] = test system: subject suffering from autism or an autism spectrum disorder; assay: Clinical observation of symptoms (physician, parents, educators); format: in vivo, human
[3] = following three days of oral chelation with DMSA; cited from earlier work
[4] = cited from earlier work
susceptible mouse strain = details: weight- and age-adjusted 1990s US immunization schedule; cited from earlier work
chick embryo = details: single 50 μg of mercury dose; cited from earlier work
neurons = details: nanomolar (nM) to micromolar (μM) concentrations, within hours of exposure; cited from earlier work
[5] = test system: neuronal damage in tissue culture; details: cited from earlier work
[6] = test system: rats of the JCL-SD strain; details: 0.3 to 2 mg/kg intravenously; male more susceptible; cited from earlier work
[7] = Child X (autistic person), urine collected Nov. 5, 2000, during DMSA treatment, creatinine 43.4 mg/dL
[8] = Child X, urine collected Sep. 30, 2001, during DMSA treatment, creatinine 54 mg/dL
[9] = Child Y (autistic person), urine collected Jun. 29, 2002, during DMSA treatment, creatinine 6.9 mg/dL
[10] = Child Y, urine collected Dec. 24, 2002, during DMSA treatment, creatinine 8.6 mg/dL

Compound	Toxic metals in urine, Results [1, 7]	Toxic metals in urine, Results [1, 8]	Toxic metals in urine, Results [1, 9]	Toxic metals in urine, Results [1, 10]	other results
Bismuth	0.8 μg/g creatinine	<dl	<dl	<dl	–
Platinum	0.2 μg/g creatinine	<dl	<dl	<dl	–
O=C(O)[C@@H](S)[C@@H](S)C(=O)O [DMSA, meso-2,3-dimercaptosuccinic acid]	–	–	–	–	Mercury in urine on DMSA treatment ([1]; Child X, DMSA Oct. 21, 2000 through Feb. 3, 2002): spilled toxic levels of mercury in their urine; Mercury in urine on DMSA treatment ([1]; Child Y, DMSA Jun. 26, 2002 to May 2, 2003): spilled toxic levels of mercury in their urine; Clinical improvement as a result of DMSA treatment ([2]; Child X): some improvement; Improvement in autism on DMSA treatment ([2]; Child Y): did not show significant improvement; Urinary mercury concentration, autistic children versus matched normal controls [3]: approximately 6 fold
C[CH2][Hg][S]c1ccccc1C(=O)[O-].[Na+] [thimerosal]	–	–	–	–	Passage of the blood-brain barrier ([4]; infant monkeys, doses comparable to the US dosing schedule): crosses the blood-brain barrier; Half-life of inorganic mercury in the brain ([4]; infant monkeys): > 120 days; Maximum mercury concentration observed in the brain ([4]; infant monkeys): approximately 50 parts-per-billion; Overall half-life of mercury in the brain ([4]; infant monkeys): approximately 24 days; Inorganic mercury in the brains ([4]; thimerosal-treated infant monkeys, average following the dosing schedule): 16 parts-per-billion; Neurotoxic effects (susceptible mouse strain): autistic symptoms in a susceptible mouse strain; Fetal lethality and teratogenicity compared to controls (chick embryo): significant fetal lethality and teratogenecity; Effects on neurons (neurons): inducing neuronal death, neurodegeneration, membrane damage, and DNA damage
Cadmium	1.4 μg/g creatinine	0.5 μg/g creatinine	<dl	1.6 μg/g creatinine	–
Thallium	0.2 μg/g creatinine	0.2 μg/g creatinine	0.9 μg/g creatinine	0.6 μg/g creatinine	–
Antimony	0.4 μg/g creatinine	<dl*	<dl	<dl	–
Aluminum	26 μg/g creatinine	14 μg/g creatinine	<dl*	<dl*	–
Lead	12 μg/g creatinine	8.6 μg/g creatinine	<dl	<dl	–
Tungsten	<dl	0.3 μg/g creatinine	<dl	1.6 μg/g creatinine	–
C[C@]12CC[C@H]3[C@@H](CCC4=CC(=O)CC[C@@]43C)[C@@H]1CC[C@@H]2O [testosterone]	–	–	–	–	Effect of concurrent exposure on mercury induced neuronal damage [5]: exacerbated
estrogen	–	–	–	–	Effect of concurrent exposure on mercury induced neuronal damage [5]: ameliorated
[Cl][Hg][Cl] [mercuric chloride]	–	–	–	–	Renal toxicity [6]: acute renal tubular necrosis was produced
Beryllium	<dl*	<dl	<dl	<dl	–
Arsenic	98 μg/g creatinine	37 μg/g creatinine	31 μg/g creatinine	23 μg/g creatinine	–
